Experiment [1] addresses L. major DHFR (Leishmania major, UniProt P07382). The experiment in a line: L. major DHFR. The format is biochemical.
Experiment [2] concerns the target T1, L. major PTR1 (Leishmania major, UniProt Q01782).
T1 sequence (Q01782 1-288): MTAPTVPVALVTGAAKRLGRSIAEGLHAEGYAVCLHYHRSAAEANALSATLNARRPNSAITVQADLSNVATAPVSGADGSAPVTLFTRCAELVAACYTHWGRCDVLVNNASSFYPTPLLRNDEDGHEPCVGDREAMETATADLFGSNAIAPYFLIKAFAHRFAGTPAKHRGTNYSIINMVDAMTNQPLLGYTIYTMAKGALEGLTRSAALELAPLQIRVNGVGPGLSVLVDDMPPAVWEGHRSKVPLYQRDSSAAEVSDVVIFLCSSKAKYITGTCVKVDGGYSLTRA
The experiment in a line: L. major PTR1 enzyme inhibition assay. The format is biochemical.

This is an account of results in PMC11575720 (RSC Advances, 2024).

The structures appear in SMILES notation.

L. major DHFR, sequence (P07382 whole entry): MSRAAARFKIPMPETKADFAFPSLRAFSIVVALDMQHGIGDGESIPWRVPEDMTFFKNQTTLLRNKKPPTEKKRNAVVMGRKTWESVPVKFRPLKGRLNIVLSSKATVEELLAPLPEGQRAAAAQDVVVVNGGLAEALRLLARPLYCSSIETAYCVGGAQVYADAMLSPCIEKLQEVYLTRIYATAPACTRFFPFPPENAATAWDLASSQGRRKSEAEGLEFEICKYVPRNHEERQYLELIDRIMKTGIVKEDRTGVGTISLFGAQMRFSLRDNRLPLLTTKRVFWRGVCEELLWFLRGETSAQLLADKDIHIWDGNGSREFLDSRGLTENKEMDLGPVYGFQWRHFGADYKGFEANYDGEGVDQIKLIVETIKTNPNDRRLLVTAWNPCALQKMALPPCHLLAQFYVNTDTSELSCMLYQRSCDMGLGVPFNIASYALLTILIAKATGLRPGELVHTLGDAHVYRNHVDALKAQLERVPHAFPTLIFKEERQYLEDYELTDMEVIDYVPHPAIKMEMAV

Regarding `Cc1nc(NC(=S)NCc2cccs2)nc(-c2ccccc2)c1C(=O)N1CCC(C(=O)O)CC1` [Compound 20b, 1-(4-Methyl-6-phenyl-2-(3-(thiophen-2-ylmethyl)thioureido)pyrimidine-5-carbonyl)piperidine-4-carboxylic acid], the IC50 in experiment [1] was 1.14 ± 0.01 µM; in experiment [2], 19.89 ± 0.01 µM.

As for `Cc1nc(NC(=S)NCc2ccco2)nc(-c2ccccc2)c1C(=O)N1CCC(C(=O)O)CC1` [Compound 20a, 1-(2-(3-(Furan-2-ylmethyl)thioureido)-4-methyl-6-phenylpyrimidine-5-carbonyl)piperidine-4-carboxylic acid], the results for the IC50 in experiment [1] and in experiment [2] were 2.63 ± 0.01 µM and 15.86 ± 0.01 µM, respectively.

As for `O=C(NC(=S)Nc1cccc(O)c1)c1cccs1` [Compound 4g, N-((3-Hydroxyphenyl)carbamothioyl)thiophene-2-carboxamide], the results for the IC50 in experiment [1] and in experiment [2] were 8.09 ± 0.01 µM and 0.58 ± 0.05 µM, respectively.
